The record followed here is patent publication US8530493B2, “Indolopyridines as Eg5 kinesin modulators” (4SC AG, priority 2006, dated 2013).

This assay deals with RKO p21 uninduced (proliferating) colon adenocarcinoma cells. In words: Alamar Blue cell viability assay, RKO p21 uninduced (proliferating). Type of assay: cell-based. Particulars: Homo sapiens, Table B3, anti-proliferative/cytotoxic activity, 72 hours, read-out: −log EC50 RKO p21 uninduced (proliferating) (converted). A digest of the protocol:
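RKO p21 or p27 subclones grown without Ponasterone A, i.e. proliferating, exposed 24 h after seeding to semi-log compound dilutions in DMEM/10% FCS (1% DMSO controls) for 72 h at 37° C. Alamar Blue fluorescence (544/590 nm) read relative to untreated cells; EC50 from dose-response curves, given as −log EC50 (mol/l).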

In the case of `C[C@@]12Cc3c([nH]c4ccc(Br)cc34)[C@@H](c3cccc(O)c3)N1C(=O)N(CCNCC1CC1)C2=O` (racemic) [Example 376, (3aSR,10RS)-6-Bromo-2-[2-(cyclopropylmethyl-amino)-ethyl]-10-(3-hydroxy-phenyl)-3a-methyl-3a,4,9,10-tetrahydro-2,9,10a-triaza-cyclopenta[b]fluorene-1,3-dione], the EC50 was no more than 0.0398 µM.
The result for `C=CCNCCCN1C(=O)N2[C@H](c3cccc(O)c3)c3[nH]c4cc(F)c(OC)cc4c3C[C@@]2(C)C1=O` (racemic) [Example 334, (3aSR,10RS)-2-(3-Allylamino-propyl)-7-fluoro-10-(3-hydroxy-phenyl)-6-methoxy-3a-methyl-3a,4,9,10-tetrahydro-2,9,10a-triaza-cyclopenta[b]fluorene-1,3-dione] reads 0.0398 to 0.251 µM.
On to `CCOc1ccc2[nH]c3c(c2c1)C[C@@]1(C)C(=O)N(CCCN(C)CC)C(=O)N1[C@@H]3c1cccc(O)c1` (racemic) [Example 192, (3aSR,10RS)-6-Ethoxy-2-[3-(ethyl-methyl-amino)-propyl]-10-(3-hydroxy-phenyl)-3a-methyl-3a,4,9,10-tetrahydro-2,9,10a-triaza-cyclopenta[b]fluorene-1,3-dione], for which the EC50 is 0.0398 to 0.251 µM.
The value for `CC(C)CNCCCN1C(=O)N2[C@H](c3cccc(O)c3)c3[nH]c4ccc(OC(F)F)cc4c3C[C@@]2(C)C1=O` (racemic) [Example 199, (3aSR,10RS)-6-(1,1-Difluoro-methoxy)-10-(3-hydroxy-phenyl)-2-(3-isobutylamino-propyl)-3a-methyl-3a,4,9,10-tetrahydro-2,9,10a-triaza-cyclopenta[b]fluorene-1,3-dione] was 0.0398 to 0.251 µM; that for `CCOc1ccc2[nH]c3c(c2c1)C[C@@]1(C)C(=O)N(CCCN(CC)CCO)C(=O)N1[C@@H]3c1cccc(O)c1` (racemic) [Example 194, (3aSR,10RS)-6-Ethoxy-2-{3-[ethyl-(2-hydroxy-ethyl)-amino]-propyl}-10-(3-hydroxy-phenyl)-3a-methyl-3a,4,9,10-tetrahydro-2,9,10a-triaza-cyclopenta[b]fluorene-1,3-dione] was 0.0398 to 0.251 µM; that for `CN(C)CCCN1C(=O)N2[C@H](c3cccc(O)c3)c3[nH]c4ccc(Br)cc4c3C[C@@]2(C)C1=O` (racemic) [Example 230, (3aSR,10RS)-6-Bromo-2-(3-dimethylamino-propyl)-10-(3-hydroyx-phenyl)-3a-methyl-3a,4,9,10-tetrahydro-2,9,10a-triaza-cyclopenta[b]fluorene-1,3-dione] was no more than 0.0398 µM.
The value for `COc1cc2c3c([nH]c2cc1F)[C@@H](c1cccc(O)c1)N1C(=O)N(CCCN2CCOCC2)C(=O)[C@]1(C)C3` (racemic) [Example 321, (3aSR,10RS)-7-Fluoro-10-(3-hydroxy-phenyl)-6-methoxy-3a-methyl-2-(3-morpholin-4-yl-propyl)-3a,4,9,10-tetrahydro-2,9,10a-triaza-cyclopenta[b]fluorene-1,3-dione] was 0.0398 to 0.251 µM; that for `COc1ccc2[nH]c3c(c2c1)C[C@@]1(C)C(=O)N(CCCN2CCN(C)CC2)C(=O)N1[C@@H]3c1cccc(O)c1` (racemic) [Example 150, (3aSR,10RS)-10-(3-Hydroxy-phenyl)-6-methoxy-3a-methyl-2-[3-(4-methyl-piperazin-1-yl)-propyl]-3a,4,9,10-tetrahydro-2,9,10a-triaza-cyclopenta[b]fluorene-1,3-dione] was no more than 0.0398 µM.
The result for `CCN(CC)CCN1C(=O)N2[C@H](c3cccc(O)c3)c3[nH]c4cc(F)c(OC)cc4c3C[C@@]2(C)C1=O` (racemic) [Example 258, (3aSR,10RS)-2-(2-Diethylamino-ethyl)-7-fluoro-10-(3-hydroxy-phenyl)-6-methoxy-3a-methyl-3a,4,9,10-tetrahydro-2,9,10a-triaza-cyclopenta[b]fluorene-1,3-dione] reads 0.0398 to 0.251 µM.
Consider `CCNCCCN1C(=O)N2[C@H](c3cccc(O)c3)c3[nH]c4ccc(Br)cc4c3C[C@@]2(C)C1=O` (racemic) [Example 212, (3aSR,10RS)-6-Bromo-2-(3-ethylamino-propyl)-10-(3-hydroxy-phenyl)-3a-methyl-3a,4,9,10-tetrahydro-2,9,10a-triaza-cyclopenta[b]fluorene-1,3-dione], for which the EC50 is no more than 0.0398 µM.
Consider `COc1cc2c3c([nH]c2cc1F)[C@@H](c1cccc(O)c1)N1C(=O)N(CCN2CC=CCC2)C(=O)[C@]1(C)C3` (racemic) [Example 265, (3aSR,10RS)-2-[2-(3,6-Dihydro-2H-pyridin-1-yl)-ethyl]-7-fluoro-10-(3-hydroxy-phenyl)-6-methoxy-3a-methyl-3a,4,9,10-tetrahydro-2,9,10a-triaza-cyclopenta[b]fluorene-1,3-dione], for which the concentration for a half-maximal effect (EC50) is 0.0398 to 0.251 µM.
The result for `COc1cc2c3c([nH]c2cc1F)[C@@H](c1cccc(O)c1)N1C(=O)N(CCCN2CC=CC2)C(=O)[C@]1(C)C3` (racemic) [Example 323, (3aSR,10RS)-2-[3-(2,5-Dihydro-pyrrol-1-yl)-propyl]-7-fluoro-10-(3-hydroxy-phenyl)-6-methoxy-3a-methyl-3a,4,9,10-tetrahydro-2,9,10a-triaza-cyclopenta[b]fluorene-1,3-dione] reads 0.0398 to 0.251 µM.
For `C[C@@]12Cc3c([nH]c4ccc(Br)cc34)[C@@H](c3cccc(O)c3)N1C(=O)N(CCCNC1CC1)C2=O` (racemic) [Example 215, (3aSR,10RS)-6-Bromo-2-(3-cyclopropylamino-propyl)-10-(3-hydroxy-phenyl)-3a-methyl-3a,4,9,10-tetrahydro-2,9,10a-triaza-cyclopenta[b]fluorene-1,3-dione], the EC50 was no more than 0.0398 µM.
The result for `CCNCCN1C(=O)N2[C@H](c3cccc(O)c3)c3[nH]c4ccc(OCC)cc4c3C[C@@]2(C)C1=O` (racemic) [Example 296, (3aSR,10RS)-6-Ethoxy-2-(2-ethylamino-ethyl)-10-(3-hydroxy-phenyl)-3a-methyl-3a,4,9,10-tetrahydro-2,9,10a-triaza-cyclopenta[b]fluorene-1,3-dione] reads no more than 0.0398 µM; that for `COCCNCCCN1C(=O)N2[C@H](c3cccc(O)c3)c3[nH]c4cc(F)c(Cl)cc4c3C[C@@]2(C)C1=O` (racemic) [Example 462, (3aSR,10RS)-6-Chloro-7-fluoro-10-(3-hydroxy-phenyl)-2-[3-(2-methoxy-ethylamino)-propyl]-3a-methyl-3a,4,9,10-tetrahydro-2,9,10a-triaza-cyclopenta[b]fluorene-1,3-dione], no more than 0.0398 µM.
The result for `CC(=O)N1CCN(CCCN2C(=O)N3[C@H](c4cccc(O)c4)c4[nH]c5ccc(OC(F)F)cc5c4C[C@@]3(C)C2=O)CC1` (racemic) [Example 241, (3aSR,10RS)-2-[3-(4-Acetyl-piperazin-1-yl)-propyl]-6-(1,1-difluoro-methoxy)-10-(3-hydroxy-phenyl)-3a-methyl-3a,4,9,10-tetrahydro-2,9,10a-triaza-cyclopenta[b]fluoroene-1,3-dione] reads 0.0398 to 0.251 µM.
The result for `C=CCN(C)CCN1C(=O)N2[C@H](c3cccc(O)c3)c3[nH]c4cc(F)c(Cl)cc4c3C[C@@]2(C)C1=O` (racemic) [Example 362, (3aSR,10RS)-2-[2-(Allyl-methyl-amino)-ethyl]-6-chloro-7-fluoro-10-(3-hydroxy-phenyl)-3a-methyl-3a,4,9,10-tetrahydro-2,9,10a-triaza-cyclopenta[b]fluorene-1,3-dione] reads 0.0398 to 0.251 µM.
Take `CNCCN1C(=O)N2[C@H](c3cccc(O)c3)c3[nH]c4cc(F)c(Cl)cc4c3C[C@@]2(C)C1=O` (racemic) [Example 337, (3aSR,10RS)-6-Chloro-7-fluoro-10-(3-hydroxy-phenyl)-3a-methyl-2-(2-methylamino-ethyl)-3a,4,9,10-tetrahydro-2,9,10a-triaza-cyclopenta[b]fluorene-1,3-dione]: the EC50 was no more than 0.0398 µM.
Regarding `CN1CCN(CCN2C(=O)N3[C@H](c4cccc(O)c4)c4[nH]c5cc(F)c(Cl)cc5c4C[C@@]3(C)C2=O)CC1` (racemic) [Example 359, (3aSR,10RS)-6-Chloro-7-fluoro-10-(3-hydroxy-phenyl)-3a-methyl-2-[2-(4-methyl-piperazin-1-yl)-ethyl]-3a,4,9,10-tetrahydro-2,9,10a--triaza-cyclopenta[b]fluorene-1,3-dione], the EC50 was 0.0398 to 0.251 µM.
On to `CN(CCO)CCN1C(=O)N2[C@H](c3cccc(O)c3)c3[nH]c4ccc(Br)cc4c3C[C@@]2(C)C1=O` (racemic) [Example 384, (3aSR,10RS)-6-Bromo-2-{2-[(2-hydroxy-ethyl)-methyl-amino]-ethyl}-10-(3-hydroxy-phenyl)-3a-methyl-3a,4,9,10-tetrahydro-2,9,10a-triaza-cyclopenta[b]fluorene-1,3-dione], for which the EC50 was no more than 0.0398 µM.
Take `CCOc1ccc2[nH]c3c(c2c1)C[C@@]1(C)C(=O)N(CCCNC)C(=O)N1[C@@H]3c1cccc(O)c1` (racemic) [Example 186, (3aSR,10RS)-6-Ethoxy-10-(3-hydroxy-phenyl)-3a-methyl-2-(3-methylamino-propyl)-3a,4,9,10-tetrahydro-2,9,10a-triaza-cyclopenta[b]fluorene-1,3-dione]: the EC50 is 0.0398 to 0.251 µM.
The result for `CC(C)(C)NCCN1C(=O)N2[C@H](c3cccc(O)c3)c3[nH]c4ccc(Br)cc4c3C[C@@]2(C)C1=O` (racemic) [Example 378, (3aSR,10RS)-6-Bromo-2-(2-tert-butylamino-ethyl)-10-(3-hydroxy-phenyl)-3a-methyl-3a,4,9,10-tetrahydro-2,9,10a-triaza-cyclopenta[b]fluorene-1,3-dione] reads no more than 0.0398 µM; that for `COCCNCCN1C(=O)N2[C@H](c3cccc(O)c3)c3[nH]c4cc(F)c(Cl)cc4c3C[C@@]2(C)C1=O` (racemic) [Example 343, (3aSR,10RS)-6-Chloro-7-fluoro-10-(3-hydroxy-phenyl)-2-[2-(2-methoxy-ethylamino)-ethyl]-3a-methyl-3a,4,9,10-tetrahydro-2,9,10a-triaza-cyclopenta[b]fluorene-1,3-dione], no more than 0.0398 µM.
